Source: patent US9434687B2, “Detection of synthetic cannabinoids” (priority 2011, dated 2016)

Key:
Assay type in all cases: binding, sheep
[1] = system: antibodies raised to Immunogens I & II; experiment: Competitive ELISA, selected molecules as potential cross-reactants (Table 3); conditions: for % CR / IC50: Table 3, standard conc 750.00 ng/ml
Method: (a) The wells of an enhanced binding 96 well polystyrene microtiter plate were coated with the Ig fraction of the antiserum raised to Immunogen I (Hapten A-BTG—example 5) and diluted in 10 mM Tris, pH8.5 (125 μl/well). The appropriate antibody coating concentration was determined using standard ELISA checkerboard techniques. The plate was incubated for 2 hours at 37° C., washed 4 times over a 10-minute period with Tris buffered saline containing Tween 20 (TBST) and tapped dry. Standard solutions of JWH synthetic cannabinoids, metabolites and selected molecules were prepared in TBST and 50 μl of each was added to the appropriate wells. 75 μl of conjugate (Hapten A-HRP) diluted in Tris buffer containing EDTA, D-mannitol, sucrose, thimerosal and BSA, was added to each of the wells. The appropriate dilution of conjugate was also determined using standard ELISA checkerboard techniques. The plate was incubated at 25° C. for 1 hour. The excess unbound conjugate was removed by washing 6 times over a 10-minute period with TBST and tapped dry. 125 μl of tetramethylbenzedine (TMB) substrate solution was added to each well of the plate that was then incubated for 15-20 minutes in the dark at room temperature. The reaction was terminated by addition of 125 μl of 0.2M sulphuric acid to each well. The absorbance was then measured at 450 nm using a microtiter plate reader.
Employing each series of standards, calibration curves were generated and these were used to determine the specificity of the immunoassay for the JWH synthetic cannabinoids, metabolites and selected molecules. The results of this study are presented in Tables 1 to 3, cross-reactivity being calculated according to the following formula: % CR=IC50,JWH-018/IC50,CR×100
Where % CR is the percentage cross-reactivity, IC50, JWH-018 is the concentration of JWH-018 that causes 50% displacement of signal and IC50, CR is the concentration of JWH synthetic cannabinoid/metabolite/selected molecule that causes 50% displacement of signal.
The antibody produced from Immunogen I is able to bind to JWH molecules known to be incorporated in herbal therapeutics such as JWH-018, proposed metabolites such as M2 (Wintermeyer et al 2010), and potential metabolites such as M5. The detection and quantification of other JWH SSCs is also provided for, the antibodies of the invention bind a range of molecules comprising the 3-(1-naphthoyl)-1H-indole structure (e.g. JWH-071, JWH-398, M1 etc.). […] The concept of using the antibodies of the invention to detect and determine future stealth synthetic cannabinoids is highlighted in Table 4; the 5-fluoropentyl derivative known to bind the CB 1 receptor, but which as of yet has not been detected in herbal therapeutics or similar substances, binds to antibodies raised from Immunogens I and II.

[2] = system: IgG fraction of antiserum raised to Immunogen IV; conditions: Antibody to Immunogen IV; cross-reactants at 100 ng/ml; 1000 ng/ml; standard JWH-018
[3] = system: IgG fraction of antiserum raised to Immunogen VII; conditions: Antibody to Immunogen VII; cross-reactants at 100 ng/ml; 1000 ng/ml; standard JWH-015
[4] = system: IgG fraction of antiserum raised to Immunogen VIII; conditions: Antibody to Immunogen VIII; cross-reactants at 100 ng/ml; 1000 ng/ml; standard JWH-018
[5] = system: IgG fraction of antiserum raised to Immunogen I; conditions: Antibody to Immunogen I; cross-reactants at 100 ng/ml; 1000 ng/ml; standard JWH-018
How it was run: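 Plates were coated with the IgG fraction of sheep antiserum raised to Immunogen I and incubated with standards (JWH-018, 0-40 ng/ml) plus hapten-HRP conjugate for 1 h at 25° C. Detection used TMB, read at 450 nm. IC50 was taken from a 4-parameter fit as the concentration giving half the zero-standard OD.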

[6] = system: IgG fraction of antiserum raised to Immunogen II; experiment: Competitive ELISA, antibody RS1833B12 to Immunogen II, tracer ESC4555 (Example 36); conditions: Antibody to Immunogen II; cross-reactants at 100 ng/ml; 1000 ng/ml; standard JWH-018
Method: An aqueous solution of each immunogen was formulated with Freund's Complete Adjuvant (FCA) to form an emulsion consisting of 2 mg/ml*immunogen in 50% (v/v) FCA. Three sheep were immunised with this emulsion (1° immunisation), 0.25 ml being intramuscularly injected at each of four sites in the flank of each animal. Subsequent immunizations (boosts) contained 1 mg/ml*immunogen. All boosts were emulsified in 50% (v/v) Freund's Incomplete Adjuvant (FIA) and were administered in the same manner as the 1° immunisation, at monthly intervals. Blood sampling took place 7 to 14 days after each boost. *The general procedure for immunogen administration is outlined above, however, it was necessary to deviate from this protocol in some cases, due to reduced immunogen concentrations (Immunogens II, IV, VII and VIII) and/or amount available (Immunogen VIII). Any deviations from the protocol described are outlined in Table 5 below and highlighted in bold.
The appropriate antibody coating dilution was determined using standard ELISA checkerboard techniques. The plate was incubated overnight at 4° C., washed 4 times over 10 minutes with Tris buffered saline containing Tween 20 (TBST) and tapped dry. […] 75 μl of conjugate (appropriate hapten-HRP) diluted in Tris buffer (pH 7.2) containing EDTA, D-mannitol, sucrose, thimerosal and BSA, was added to each of the wells. The appropriate dilution of conjugate was also determined using standard ELISA checkerboard techniques. The plate was incubated at 25° C. for 1 hour. Excess unbound conjugate was removed by washing 6 times over a 10 minute period with TBST. 125 μl of tetramethylbenzidine (TMB) substrate solution was added to each well of the plate that was then incubated for 20 minutes in the dark at room temperature. The reaction was terminated by addition of 125 μl 0.2M H2SO4 to each well. The absorbance was then measured at 450 nm using a microtiter plate reader. The data are inputted to a computer program called ‘KC Junior’. It is a 4 parameter fit curve and allow the calculation of concentrations between the standard runs.
In a similar manner to that described above, the wells of a 96-well microtiter plate were coated with the IgG fraction of the antiserum raised to Immunogens I or II.
The data set out in Tables 7-10 are generated using antibodies raised against the indicated Immunogens in a competitive binding assay with the indicated tracers, using the indicated standards
Using the calibration curves generated and employing a single level of cross reactants, these were used to determine the cross-reactivity of each immunoassay with these substances. These are the standards used for the IC50 and cross-reactivity data generation: […]

Structure (SMILES) | % CR [1] [%] | IC50 [1] [µg/mL] | % B/B0 [2] [%] | % B/B0 [3] [%] | % B/B0 [4] [%] | % B/B0 [5] [%] | % B/B0 [6] [%] | binding / cross-reaction with antibodies raised from Immunogens I and II (in words) [1]
CCCCCn1cc(C(=O)O)c2ccccc21 [3-Carboxy-N-pentyl-1H-indole, 3-carboxy-1-pentyl-1H-indole] | <0.28 | >0.75 | – | – | – | – | – | –
COc1cccc2[nH]cc(CCN(C)C)c12 [4-Methoxypsilocin] | <0.28 | >0.75 | – | – | – | – | – | –
O=C(O)Cc1c[nH]c2ccc(O)cc12 [5-hydroxyindole-3-acetic acid] | <0.28 | >0.75 | 96.61 | 99.46 | 108.24 | 98.71 | – | –
CCCCCc1cc(O)c2c(c1)OC(C)(C)[C@@H]1CCC(CO)=C[C@@H]21 [11-Hydroxy-δ-9-THC] | <0.28 | >0.75 | – | – | – | – | – | –
CCCCn1c(C)c(C(=O)c2cccc3ccccc23)c2ccccc21 [JWH-016] | – | – | 91.14 | 19.31 | 75.24 | 20.71 | 68.73 | –
CCCCCn1cc(C(=O)c2cccc3ccccc23)c2ccc(OC)cc21 [JWH-018 6-methoxyindole analogue] | – | – | 90.65 | 72.33 | 77.22 | 10.55 | 20.44 | –
CC(C)(C)Cn1cc(C(=O)c2cccc3ccccc23)c2ccccc21 [JWH-018 N-(2,2-dimethylpropyl) isomer] | – | – | 80.42 | 52.46 | 95.09 | 3.89 | 60.15 | –
CCCCCCn1cc(C(=O)c2cccc3ccccc23)c2ccccc21 [JWH-019] | – | – | 21.96 | 70.05 | 74.50 | 7.22 | 15.42 | –
CCCCCCCn1cc(C(=O)c2cccc3ccccc23)c2ccccc21 [JWH-020] | – | – | 73.73 | 81.30 | 100.73 | 16.03 | 35.75 | –
C=CCCCn1cc(C(=O)c2cccc3ccccc23)c2ccccc21 [JWH-022] | – | – | 10.61 | 58.44 | 28.94 | 4.51 | 11.72 | –
CCn1cc(C(=O)c2cccc3ccccc23)c2ccccc21 [JWH-071] | – | – | – | – | – | – | – | bind
CC(O)CCn1cc(C(=O)c2cccc3ccccc23)c2ccccc21 (stereo not drawn) [JWH-073 N-(3-hydroxybutyl) metabolite] | – | – | 53.52 | 43.39 | 94.04 | 3.10 | 54.52 | –
O=C(c1cccc2ccccc12)c1cn(CCCCO)c2ccccc12 [JWH-073 N-(4-hydroxybutyl) metabolite] | – | – | 52.61 | 48.81 | 57.99 | 3.22 | 60.01 | –
O=C(O)CCCn1cc(C(=O)c2cccc3ccccc23)c2ccccc21 [JWH-073 N-butanoic acid metabolite] | – | – | 98.95 | 60.01 | 94.98 | 6.88 | 92.20 | –
CCCCCn1cc(C(=O)c2cccc3c(OC)cccc23)c2ccccc21 [JWH-081 5-methoxynaphthyl isomer] | – | – | 6.24 | 94.16 | 26.56 | 18.51 | 60.90 | –
Cc1ccc(C(=O)c2cn(CCCCCO)c3ccccc23)c2ccccc12 [JWH-122 N-(5-hydroxypentyl) metabolite] | – | – | 25.72 | 83.65 | 48.67 | 42.80 | 71.76 | –
CCCCCn1cc(C(=O)c2ccc(C)c3ccccc23)c2ccccc21 [JWH-122] | – | – | 3.94 | 89.37 | 14.43 | 62.98 | 44.55 | –
O=C(c1cccc2ccccc12)c1cn(CCN2CCOCC2)c2cccc(O)c12 [JWH-200 4-hydroxyindole metabolite] | – | – | 87.88 | 91.15 | 91.82 | 44.97 | 78.17 | –
O=C(c1cccc2ccccc12)c1cn(CCN2CCOCC2)c2ccc(O)cc12 [JWH-200 5-hydroxyindole metabolite] | – | – | 97.53 | 82.42 | 90.88 | 12.61 | 64.99 | –
O=C(c1cccc2ccccc12)c1cn(CCN2CCOCC2)c2cc(O)ccc12 [JWH-200 6-hydroxyindole metabolite] | – | – | 94.41 | 65.52 | 83.20 | 7.27 | 61.65 | –
CCCCCn1cc(C(=O)c2cccc3c(Cl)cccc23)c2ccccc21 [JWH-398 5-chloronaphthyl isomer] | – | – | 7.06 | 91.33 | 19.67 | 35.53 | 23.50 | –
O=C(c1ccc(Cl)c2ccccc12)c1cn(CCCCCO)c2ccccc12 [JWH-398 N-(5-hydroxypentyl) metabolite] | – | – | 22.01 | 82.97 | 51.33 | 48.07 | 67.49 | –
CCCCCn1cc(C(=O)c2ccccc2OC)c2ccccc21 [RCS-4 2-methoxy isomer] | – | – | 15.28 | 87.27 | 29.32 | 29.14 | 42.74 | –
NCCc1c[nH]c2ccc(O)cc12 [Serotonin] | <0.28 | >0.75 | – | – | – | – | – | –
